Assay results as given in patent publication US9630963B2, “Quinolone derivatives as fibroblast growth factor inhibitors” (Principia Biopharma, Inc., priority 2013, dated 2017).

Legend:
SNU-16 cells = assay: Inhibition of FGFR2-dependent cell growth (Cell-titer Glo); format: cell-based; details: Homo sapiens, SNU16 cells, 72 hrs incubation, cell viability by Cell-titer Glo
Experimental: The cell-based effects of FGFR inhibitors were determined by measuring inhibition of FGFR-dependent cell line growth. […] Percent inhibition of cell growth was calculated as a percentage of untreated cell viability. The percent inhibition was plotted as a function of log compound concentration. The IC50 was then calculated for each compound using Prism software from GraphPad.

human recombinant FGFR1 = human recombinant FGFR1 (Homo sapiens, UniProt P11362); assay: FGFR family enzymatic activity assay (Caliper-based kinase assay), FGFR1; format: biochemical; details: FGFR1 0.5 nM, ATP 100 μM, peptide substrate 1 μM, room temperature 3 h
From the text: A Caliper-based kinase assay (Caliper Life Sciences, Hopkinton, Mass.) was used to measure inhibition of FGFR family (FGFR1, FGFR2, FGFR3, FGFR4) kinase activity of a compound of Formula (I′) or (I). […] This value is presented as the IC50.

Sequence of human recombinant FGFR1 (P11362 22-822): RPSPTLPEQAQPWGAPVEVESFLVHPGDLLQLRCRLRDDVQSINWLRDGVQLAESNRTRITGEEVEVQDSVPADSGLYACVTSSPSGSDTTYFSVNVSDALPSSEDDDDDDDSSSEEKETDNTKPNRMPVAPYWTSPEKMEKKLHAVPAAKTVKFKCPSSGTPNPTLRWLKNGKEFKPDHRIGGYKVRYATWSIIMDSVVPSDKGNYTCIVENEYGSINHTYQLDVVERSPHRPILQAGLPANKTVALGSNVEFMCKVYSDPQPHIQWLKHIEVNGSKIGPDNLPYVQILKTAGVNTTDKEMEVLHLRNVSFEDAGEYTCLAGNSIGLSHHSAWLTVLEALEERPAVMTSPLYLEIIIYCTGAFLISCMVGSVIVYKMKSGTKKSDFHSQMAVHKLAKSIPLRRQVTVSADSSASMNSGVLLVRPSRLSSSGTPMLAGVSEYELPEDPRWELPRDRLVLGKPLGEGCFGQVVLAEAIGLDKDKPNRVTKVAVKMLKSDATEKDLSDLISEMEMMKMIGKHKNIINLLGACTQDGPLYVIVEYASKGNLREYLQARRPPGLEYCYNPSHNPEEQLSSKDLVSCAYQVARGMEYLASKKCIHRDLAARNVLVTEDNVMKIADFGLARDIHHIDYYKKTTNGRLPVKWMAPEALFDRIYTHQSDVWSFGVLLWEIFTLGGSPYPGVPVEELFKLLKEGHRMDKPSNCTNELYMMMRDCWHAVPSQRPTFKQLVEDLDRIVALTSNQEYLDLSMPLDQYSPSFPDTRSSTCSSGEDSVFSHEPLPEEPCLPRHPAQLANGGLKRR

Row | Structure (SMILES) | IC50 (SNU-16 cells) [nM] | IC50 (human recombinant FGFR1) [nM]
1 | C=CC(=O)Nc1nc(CCn2c(=O)c(-c3c(Cl)c(OC)cc(OC)c3Cl)cc3cnc(NC)nc32)cs1 [Example 41, N-(4-(2-(6-(2,6-dichloro-3,5-dimethoxyphenyl)-2-(methylamino)-7-oxopyrido[2,3-d]pyrimidin-8(7H)-yl)ethyl)thiazol-2-yl)acrylamide] | > 330 | 5
2 | CNc1ncc2cc(-c3cc(OC)cc(OC)c3Cl)c(=O)n(CCc3ccc(NS(=O)(=O)C=C(C)C)cc3)c2n1 [Example 45, N-(4-(2-(6-(2-chloro-3,5-dimethoxyphenyl)-2-(methylamino)-7-oxopyrido[2,3-d]pyrimidin-8(7H)-yl)ethyl)phenyl)-2-methylprop-1-ene-1-sulfonamide] | 48 | 4
3 | C=CC(=O)Nc1cnc(CCn2c(=O)c(-c3cc(OC)cc(OC)c3Cl)cc3cnc(NCCN4CCOCC4)nc32)cn1 [Example 47, N-(5-(2-(6-(2-chloro-3,5-dimethoxyphenyl)-2-((2-morpholinoethyl)amino)-7-oxopyrido[2,3-d]pyrimidin-8(7H)-yl)ethyl)pyrazin-2-yl)acrylamide] | 82.4 | 3
4 | C=CC(=O)Nc1ccc(CCn2c(=O)c(-c3cc(OC)cc(OC)c3Cl)cc3cnc(NCCn4ccnc4)nc32)cc1 [Example 50, N-(4-(2-(2-((2-(1H-imidazol-1-yl)ethyl)amino)-6-(2-chloro-3,5-dimethoxyphenyl)-7-oxopyrido[2,3-d]pyrimidin-8(7H)-yl)ethyl)phenyl)acrylamide] | 11.7 | 7.4
5 | C=CC(=O)Nc1cccc(CCn2c(=O)c(-c3cc(OC)cc(OC)c3F)cc3cnc(NCCN4CCOCC4)nc32)c1 [Example 52, N-(3-(2-(6-(2-fluoro-3,5-dimethoxyphenyl)-2-(2-morpholin-4-ylethyllamino)-7-oxopyrido[2,3-d]pyrimidin-8(7H)-yl)ethyl)phenyl)acrylamide] | 15 | 5.4
6 | C=CC(=O)Nc1ccc(CCn2c(=O)c(-c3cc(OC)cc(OC)c3F)cc3cnc(NCCN4CCOCC4)nc32)cc1F [Example 53, N-(2-fluoro-4-(2-(6-(2-fluoro-3,5-dimethoxyphenyl)-2-((2-morpholinoethyl)amino)-7-oxopyrido[2,3-d]pyrimidin-8(7H)-yl)ethyl)phenyl)acrylamide] | 71.3 | 28.9
7 | C=CC(=O)Nc1ccc(CCn2c(=O)c(-c3cc(OC)cc(OC)c3Cl)cc3cnc(NCCN4CCOCC4)nc32)cc1F [Example 54, N-(4-(2-(6-(2-chloro-3,5-dimethoxyphenyl)-2-((2-morpholinoethyl)amino)-7-oxopyrido[2,3-d]pyrimidin-8(7H)-yl)ethyl)-2-fluorophenyl)acrylamide] | 33.3 | 11.7
8 | C=CC(=O)Nc1ccc(CCn2c(=O)c(-c3cc(OC)cc(OC)c3Cl)cc3cnc(NC(C)(C)CN4CCOCC4)nc32)cc1 [Example 67, N-(4-(2-(6-(2-chloro-3,5-dimethoxyphenyl)-2-((2-methyl-1-morpholinopropan-2-yl)amino)-7-oxopyrido[2,3-d]pyrimidin-8(7H)-yl)ethyl)phenyl)acrylamide] | 9.7 | 2.3
9 | C=CC(=O)Nc1ccc(CCn2c(=O)c(-c3cc(OC)cc(OC)c3Cl)cc3cnc(NCCN4CCS(=O)(=O)CC4)nc32)cc1 [Example 74, N-(4-(2-(6-(2-chloro-3,5-dimethoxyphenyl)-2-((2-(1,1-dioxidothiomorpholino)-ethyl)amino)-7-oxopyrido[2,3-d]pyrimidin-8(7H)-yl)ethyl)phenyl)acrylamide] | 13.3 | 2.2
10 | C=CC(=O)Nc1ccc(CCn2c(=O)c(-c3cc(OC)cc(OC)c3Cl)cc3cnc(NCCN4[C@H](C)CNC[C@@H]4C)nc32)cc1 [Example 82, N-(4-(2-(6-(2-chloro-3,5-dimethoxyphenyl)-2-((2-((2R,6S)-2,6-dimethylpiperazin-1-yl)ethyl)amino)-7-oxopyrido[2,3-d]pyrimidin-8(7H)-yl)ethyl)phenyl)acrylamide] | 70.4 | 0.5
11 | C=CC(=O)Nc1ccc(CCn2c(=O)c(-c3c(Cl)c(OC)cc(OC)c3Cl)cc3cnc(NCC(C)(C)O)nc32)nc1 [Example 84, N-(6-(2-(6-(2,6-dichloro-3,5-dimethoxyphenyl)-2-((2-hydroxy-2-methylpropyl)-amino)-7-oxopyrido[2,3-d]pyrimidin-8(7H)-yl)ethyl)pyridin-3-yl)acrylamide] | 14.5 | 0.7
12 | C=CC(=O)Nc1ccc(CCn2c(=O)c(-c3c(Cl)c(OC)cc(OC)c3Cl)cc3cnc(NCCO)nc32)nc1 [Example 86, N-(6-(2-(6-(2,6-dichloro-3,5-dimethoxyphenyl)-2-((2-hydroxyethyl)amino)-7-oxopyrido[2,3-d]pyrimidin-8(7H)-yl)ethyl)pyridin-3-yl)acrylamide] | 11.4 | 0.6
13 | C=CC(=O)Nc1ccc(CCn2c(=O)c(-c3c(Cl)c(OC)cc(OC)c3Cl)cc3cnc(NC(CO)CO)nc32)nc1 [Example 87, N-(6-(2-(6-(2,6-dichloro-3,5-dimethoxyphenyl)-2-((1,3-dihydroxypropan-2-yl)amino)-7-oxopyrido[2,3-d]pyrimidin-8(7H)-yl)ethyl)pyridin-3-yl)acrylamide] | 169 | 1.2

Now from value to compound:

Row | IC50 (SNU-16 cells) [nM] | IC50 (human recombinant FGFR1) [nM] | Structure (SMILES)
14 | 4.3 | 2.2 | C=CC(=O)Nc1ccc(CCn2c(=O)c(-c3cc(OC)cc(OC)c3Cl)cc3cnc(NCCN4CCOCC4)nc32)c(F)c1 [Example 55, N-(4-(2-(6-(2-chloro-3,5-dimethoxyphenyl)-2-((2-morpholinoethyl)amino)-7-oxopyrido[2,3-d]pyrimidin-8(7H)-yl)ethyl)-3-fluorophenyl)acrylamide]
15 | 5 | 3.7 | C=CC(=O)Nc1ccc(CCn2c(=O)c(-c3cc(OC)cc(OC)c3Cl)cc3cnc(NCCN4CCOCC4)nc32)cc1Cl [Example 56, N-(4-(2-(6-(2-chloro-3,5-dimethoxyphenyl)-2-((2-morpholinoethyl)amino)-7-oxopyrido[2,3-d]pyrimidin-8(7H)-yl)ethyl)-2-chlorophenyl)acrylamide]
16 | 0.4 | 0.4 | C=CC(=O)Nc1ccc(CCn2c(=O)c(-c3cc(OC)cc(OC)c3Cl)cc3cnc(NCCN4CCN(C(C)C)CC4)nc32)cc1 [Example 57, N-(4-(2-(6-(2-chloro-3,5-dimethoxyphenyl)-2-((4-isopropylpiperazin-1-yl-ethyl)amino)-7-oxopyrido[2,3-d]pyrimidin-8(7H)-yl)ethyl)phenyl)acylamide]
17 | 0.8 | 1.3 | C=CC(=O)Nc1ccc(CCn2c(=O)c(-c3cc(OC)cc(OC)c3Cl)cc3cnc(NCCN4C[C@@H](C)O[C@@H](C)C4)nc32)cc1 [Example 58, N-(4-(2-(6-(2-chloro-3,5-dimethoxyphenyl)-2-((2-((2R,6S)-2,6-dimethyl-morpholino)ethyl)-amino)-7-oxopyrido[2,3-d]pyrimidin-8(7H)-yl)ethyl)phenyl)acrylamide]
18 | 0.6 | 0.5 | C#CCNc1ncc2cc(-c3cc(OC)cc(OC)c3Cl)c(=O)n(CCc3ccc(NC(=O)C=C)cn3)c2n1 [Example 59, N-(6-(2-(6-(2-chloro-3,5-dimethoxyphenyl)-7-oxo-2-(prop-2-yn-1-ylamino)pyrido-[2,3-d]pyrimidin-8(7H)-yl)ethyl)pyridin-3-yl)acrylamide]
19 | 7 | 2.3 | C=CC(=O)Nc1ccc(CCn2c(=O)c(-c3c(Cl)c(OC)cc(OC)c3Cl)cc3cnc(NC(C)(C)CO)nc32)cc1 [Example 77, N-(4-(2-(6-(2,6-dichloro-3,5-dimethoxyphenyl)-2-((1-hydroxy-2-methylpropan-2-yl)amino)-7-oxopyrido[2,3-d]pyrimidin-8(7H)-yl)ethyl)phenyl)acrylamide]
20 | 3 | 0.9 | C=CC(=O)Nc1ccc(CCn2c(=O)c(-c3cc(OC)cc(OC)c3Cl)cc3cnc(NCCN4CCN(C5COC5)CC4)nc32)cc1 [Example 78, N-(4-(2-(6-(2-chloro-3,5-dimethoxyphenyl)-2-((2-(4-(oxetan-3-yl)piperazin-1-yl)ethyl)amino)-7-oxopyrido[2,3-d]pyrimidin-8(7H)-yl)ethyl)phenyl)acrylamide]
21 | 3.4 | 0.2 | C=CC(=O)Nc1ccc(CCn2c(=O)c(-c3c(Cl)c(OC)cc(OC)c3Cl)cc3cnc(NCC)nc32)nc1 [Example 79, N-(6-(2-(6-(2,6-dichloro-3,5-dimethoxyphenyl)-2-(ethylamino)-7-oxopyrido[2,3-d]pyrimidin-8(7H)-yl)ethyl)pyridin-3-yl)acrylamide]
22 | 9.6 | 0.5 | C=CC(=O)Nc1ccc(CCn2c(=O)c(-c3c(Cl)c(OC)cc(OC)c3Cl)cc3cnc(NC(C)C)nc32)nc1 [Example 80, N-(6-(2-(6-(2,6-dichloro-3,5-dimethoxyphenyl)-2-(isopropylamino)-7-oxopyrido[2,3-d]pyrimidin-8(7H)-yl)ethyl)pyridin-3-yl)acrylamide]
23 | 4.1 | 0.3 | C=CC(=O)Nc1ccc(CCn2c(=O)c(-c3c(Cl)c(OC)cc(OC)c3Cl)cc3cnc(NC4CCOCC4)nc32)nc1 [Example 81, N-(6-(2-(6-(2,6-dichloro-3,5-dimethoxyphenyl)-7-oxo-2-((tetrahydro-2H-pyran-4-yl)amino)-pyrido[2,3-d]pyrimidin-8(7H)-yl)ethyl)pyridin-3-yl)acrylamide]
24 | 4.2 | 0.6 | C=CC(=O)Nc1ccc(CCn2c(=O)c(-c3cc(OC)cc(OC)c3Cl)cc3cnc(NCC(C)(C)CO)nc32)cc1 [Example 83, N-(4-(2-(6-(2-chloro-3,5-dimethoxyphenyl)-2-((3-hydroxy-2,2-dimethyl-propyl)amino)-7-oxopyrido[2,3-d]pyrimidin-8(7H)-yl)ethyl)phenyl)acrylamide]
